# Source: PubChem BioAssay (NCI)
#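 All cell lines were grown in 96-well plates and treated with compound for 48 hours. GI50 is the concentration that inhibits growth by half. TGI: total growth inhibition.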
# Tests used:
# Test in all cases: inhibition of tumour cell growth, NCI panel, 48 h
# BT-549 breast = system: BT-549 breast
# A498 renal = system: A498 renal
# SNB-75 CNS = system: SNB-75 CNS
# NCI-H23 lung = system: NCI-H23 lung
# K-562 leukemia = system: K-562 leukemia
# M14 melanoma = system: M14 melanoma
# OVCAR-5 ovarian = system: OVCAR-5 ovarian
# OVCAR-3 ovarian = system: OVCAR-3 ovarian
# COLO 205 colon = system: COLO 205 colon
# CCRF-CEM leukemia = system: CCRF-CEM leukemia
SMILES,GI50 (BT-549 breast),TGI (BT-549 breast),GI50 (A498 renal),TGI (A498 renal),GI50 (SNB-75 CNS),TGI (SNB-75 CNS),GI50 (NCI-H23 lung),TGI (NCI-H23 lung),GI50 (K-562 leukemia),TGI (K-562 leukemia),GI50 (M14 melanoma),TGI (M14 melanoma),GI50 (OVCAR-5 ovarian),TGI (OVCAR-5 ovarian),GI50 (OVCAR-3 ovarian),TGI (OVCAR-3 ovarian),GI50 (COLO 205 colon),TGI (COLO 205 colon),GI50 (CCRF-CEM leukemia),TGI (CCRF-CEM leukemia)
O=c1nc2n(-c3ccc(Cl)cc3)c3ccc([N+](=O)[O-])cc3cc-2c(=O)[nH]1,13.6 µM,46.2 µM,33.2 µM,> 100 µM,> 100 µM,> 100 µM,17.7 µM,34 µM,32.6 µM,> 100 µM,20.2 µM,37.7 µM,28.8 µM,73.8 µM,5.57 µM,21.6 µM,13.2 µM,31.8 µM,9.37 µM,> 100 µM
CCOC(=O)N1CCc2cc(OC)c(OC)c3c2c1cc1cc(OC)c(OC)cc13,–,3.65 µM,–,14.7 µM,–,8.4 µM,–,55.6 µM,–,> 75.9 µM,–,63.6 µM,–,> 100 µM,–,8.64 µM,–,9.06 µM,–,> 58.3 µM
CC1(C)N=C(N)N=C(N)N1c1ccc(OCCCCOc2ccc(S(=O)(=O)F)cc2)c(Cl)c1,1.32 µM,17.3 µM,1.1 µM,19.9 µM,0.737 µM,17.1 µM,0.115 µM,19.5 µM,0.0597 µM,15.8 µM,0.116 µM,15.3 µM,0.302 µM,22.7 µM,0.655 µM,16.6 µM,0.137 µM,15.5 µM,0.0794 µM,17.6 µM
CC[C@H](Nc1nc(NCc2cnc(C)cc2C)c2ncn(C(C)C)c2n1)[C@@H](C)O,0.226 µM,0.8 µM,0.167 µM,0.391 µM,0.159 µM,0.407 µM,0.334 µM,2.15 µM,0.48 µM,> 100 µM,0.318 µM,4.31 µM,0.282 µM,> 100 µM,0.355 µM,> 24.1 µM,0.247 µM,0.64 µM,0.326 µM,> 100 µM
COc1ccc(-n2nnnc2-c2c[nH]c3c(F)cc(F)cc23)cc1,> 100 µM,> 100 µM,36.5 µM,> 100 µM,24.3 µM,76.9 µM,> 100 µM,> 100 µM,> 100 µM,> 100 µM,> 100 µM,> 100 µM,> 100 µM,> 100 µM,> 100 µM,> 100 µM,> 100 µM,> 100 µM,> 100 µM,> 100 µM
CC1=C2C[C@H]3[C@@H](CC[C@@H]4CC(NS(C)(=O)=O)CC[C@@]43C)[C@@H]2CC[C@@]2(C1)O[C@@H]1C[C@H](C)CN[C@H]1[C@H]2C (stereo partly drawn),12 µM,26 µM,13.2 µM,26.8 µM,3.07 µM,15.9 µM,16.3 µM,33.2 µM,4.25 µM,31.6 µM,7.92 µM,22.6 µM,13.7 µM,27.5 µM,4 µM,14 µM,2.25 µM,4.43 µM,7.71 µM,28.4 µM
COc1ccccc1CCN=C1NC(=O)/C(=C/c2ccc3ncccc3c2)S1,6.22 µM,> 20.5 µM,3.45 µM,12.3 µM,3.71 µM,> 19.2 µM,8.56 µM,> 25 µM,1.37 µM,> 25 µM,8.41 µM,> 25 µM,7.06 µM,> 23.1 µM,4.99 µM,12.2 µM,2.86 µM,> 19.6 µM,5.45 µM,23 µM
O=C1NC(O)C(c2c[nH]c3ccccc23)=C1c1c[nH]c2ccccc12 (stereo not drawn),> 25 µM,> 25 µM,> 25 µM,> 25 µM,> 25 µM,> 25 µM,> 25 µM,> 25 µM,> 21.9 µM,> 25 µM,> 25 µM,> 25 µM,> 25 µM,> 25 µM,> 25 µM,> 25 µM,> 25 µM,> 25 µM,> 25 µM,> 25 µM
CCCc1cc2c(=O)c(C(=O)OC)c[nH]c2cc1N(CC)CC,39.8 µM,> 100 µM,82.3 µM,> 100 µM,18.6 µM,46.3 µM,44.5 µM,> 100 µM,80.5 µM,> 100 µM,57 µM,> 100 µM,> 100 µM,> 100 µM,16.4 µM,38.3 µM,46.5 µM,> 100 µM,85.8 µM,> 100 µM
Cn1c(/C=C(\C#N)c2ccccc2)nc2c(N3CCOCC3)nc(Cl)nc21,0.711 µM,2.07 µM,1.51 µM,2.87 µM,0.276 µM,1.59 µM,1.63 µM,3.2 µM,0.348 µM,3.46 µM,0.844 µM,2.26 µM,1.42 µM,2.99 µM,0.673 µM,1.88 µM,1.34 µM,2.93 µM,0.295 µM,0.971 µM
C#CCC(Cc1cnc2nc(N)nc(N)c2n1)c1ccc(C(=O)N[C@@H](CCC(=O)O)C(=O)O)cc1 (stereo partly drawn),> 100 µM,> 100 µM,> 100 µM,> 100 µM,< 0.0502 µM,> 100 µM,< 0.0174 µM,> 100 µM,< 0.01 µM,> 100 µM,< 0.01 µM,> 100 µM,< 0.01 µM,> 100 µM,< 0.0135 µM,> 100 µM,< 0.0159 µM,> 100 µM,< 0.01 µM,> 100 µM
COc1cc(C)c(Cl)cc1C1=NN(c2ccc(S(N)(=O)=O)cc2)C(/C=C/c2ccccc2)C1 (stereo not drawn),2.35 µM,4.76 µM,2.67 µM,5.71 µM,3 µM,30.1 µM,2.02 µM,7.73 µM,5.29 µM,> 100 µM,4.11 µM,24.3 µM,4.04 µM,57.3 µM,2.61 µM,6.46 µM,1.76 µM,3.33 µM,4.34 µM,> 100 µM
C=CC(=O)N1CCN(c2nc(=O)n(-c3c(C)ccnc3C(C)C)c3nc(-c4c(O)cccc4F)c(F)cc23)[C@@H](C)C1,15.8 µM,> 51.3 µM,11.8 µM,> 54.1 µM,36.1 µM,> 91.4 µM,–,> 47.2 µM,23.2 µM,> 85 µM,17 µM,> 52.6 µM,62.9 µM,> 100 µM,30.1 µM,> 86 µM,39.9 µM,> 100 µM,25.7 µM,83.1 µM
CC(C)(O)CS(=O)(=O)Nc1ccc2c(c1)CCN(C(=O)COc1cccnc1)C2,2.33 µM,> 100 µM,> 100 µM,> 100 µM,> 100 µM,> 100 µM,> 100 µM,> 100 µM,0.0652 µM,> 100 µM,0.153 µM,> 100 µM,–,> 100 µM,> 100 µM,> 100 µM,0.141 µM,> 100 µM,1.02 µM,> 100 µM
C=C(CN1C(=O)[C@H]2CCCN2C(=O)c2ccccc21)c1ccc(C(=O)O)cc1,> 100 µM,> 100 µM,> 100 µM,> 100 µM,> 100 µM,> 100 µM,> 100 µM,> 100 µM,> 100 µM,> 100 µM,> 100 µM,> 100 µM,> 100 µM,> 100 µM,> 100 µM,> 100 µM,> 100 µM,> 100 µM,> 100 µM,> 100 µM
